Reference: article PMC4805779, “The Ascaris suum nicotinic receptor, ACR-16, as a drug target: Four novel negative allosteric modulators from virtual screening” (International Journal for Parasitology: Drugs and Drug …, 2016)
Structures can show the parent of a compound that is named as a salt. Where two headings read alike, the source gives them in different places.

Columns and labels:
[1] = tested on: C. elegans strain N2; assay: C. elegans L4 larvae motility (thrashing) in M9 buffer; assay type: in vivo, Caenorhabditis elegans; conditions: for Effect on locomotion of worms vs negative control: 100 μM, 0-20 min
Method: The wild-type C. elegans strain N2 were obtained from the Caenorhabditis Genetics Center (University of Minnesota, MN, USA). […] We counted the number of worms with normal motility in M9 buffer with diluted drugs from the stock solutions (≤1% DMSO) at 0, 5, 10, 15 and 20 min. Five replicates were applied for each treatment. Motility between negative control (1% DMSO, final concentration) and drug treated worms were compared at each time point using student t-test.

[2] = target: T1, Asu-ACR-16 (Ascaris suum, UniProt F1KYJ9); assay: cell-based; assay type: cell-based; conditions: for Hill slope (nH): inhibitory concentration-response vs 100 μM ach; for Inhibitionmax (maximum inhibition): of currents elicited by 100 μM ach
T1 construct: Full-length Asu-acr-16 cDNA was amplified with the forward primer; expressed in transfected cells; host or cells: Xenopus laevis oocytes injected with Asu-acr-16 cRNA plus Asu-ric-3 cRNA
T1 sequence (F1KYJ9 1-504): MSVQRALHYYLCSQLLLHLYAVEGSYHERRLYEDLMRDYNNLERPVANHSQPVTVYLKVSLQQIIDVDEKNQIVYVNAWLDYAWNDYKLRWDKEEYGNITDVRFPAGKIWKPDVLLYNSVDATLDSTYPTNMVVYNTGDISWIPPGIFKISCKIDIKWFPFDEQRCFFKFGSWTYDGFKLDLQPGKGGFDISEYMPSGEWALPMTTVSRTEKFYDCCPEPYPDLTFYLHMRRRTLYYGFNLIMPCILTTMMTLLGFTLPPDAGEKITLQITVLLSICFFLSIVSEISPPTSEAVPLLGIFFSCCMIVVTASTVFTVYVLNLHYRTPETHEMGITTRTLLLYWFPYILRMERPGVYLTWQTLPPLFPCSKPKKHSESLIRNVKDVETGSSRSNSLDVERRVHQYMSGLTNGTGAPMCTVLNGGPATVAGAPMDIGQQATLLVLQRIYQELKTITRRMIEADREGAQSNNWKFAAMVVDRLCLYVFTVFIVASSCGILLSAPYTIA
Method: The nanoject II microinjector (Drummond Scientific, PA, USA) was used to injected the cRNA mixture into the animal pole of the de-folliculated X. laevis oocyte (Ecocyte Bioscience, Austin, TX, USA).
(§1) We used two-electrode voltage-clamp electrophysiology to record the inward current generated by the activated Asu-ACR-16 receptors expressed in X. laevis oocytes. 100 μM BAPTA-AM (final concentration) was added into the oocyte incubation solution 4 h prior to recording, to prevent the current produced by the endogenous calcium-activated chloride channels during recording. An Axoclamp 2B amplifier (Molecular Devices, CA, USA) was used for recording and oocytes were held at −60 mV. A PC computer with software Clampex 9.2 (Molecular Devices, CA, USA) was used to acquire the recording data. The microelectrodes used to measure current in oocytes were pulled on a Flaming/Brown horizontal electrode puller (Model P-97, Sutter Instruments), filled with 3M KCl and had resistances of 20–30 MΩ. The microelectrode tips were broken back carefully with Kimwipes (Wilmington, NC, USA) to reduce the resistance to 2–5 MΩ. […] Oocytes were placed into a tiny groove of the narrow oocyte recording chamber.
(§2) 100 μM acetylcholine was applied initially for 10 s as a control to check the viability of the oocytes and Asu-ACR-16 expression for all the recordings. Recording solution was then used to wash out the drug from the oocytes for 2–3 min before next application of drug perfusion.
(§3) The data from electrophysiological recordings were analyzed using Clampfit 9.2 (Molecular Devices, CA, and USA) and GraphPad Prism 5.0 (Graphpad Software Inc., CA, USA). […] Concentration-response relationships or concentration-inhibition (%) relationships were analyzed by fitting data points into the Hill equation, with at least four replicates of each experiment set.

[3] = target: T1, Asu-ACR-16; assay: cell-based; assay type: cell-based
Method: as §1, §2, §3

[4] = inhibition of currents elicited by 100 μM ach, oocytes held at −60 mV, mean ± S.E.M., read-out: IC50

Row | Structure (SMILES) | Hill slope (nH) ([2]; mean ± S.E.M.) | Inhibitionmax (maximum inhibition) ([2]; mean ± S.E.M.) [%] | Hill slope (nH) of ach curve ([3]; in presence of 3 μM hit) | Effect on locomotion of worms vs negative control ([1]; L4 larvae) | IC50 [2, 4] [µM] | other results
1 | c1ccc([C@H]2CN3CCSC3=N2)cc1 [levamisole, Levamisole hydrochloride] | – | – | – | – | – | Time without recovery of normal motility ([1]; L4 larvae, 30 μM): > 24 h
2 | Cl.N#Cc1ccc2c(c1)CCN(CC[C@H]1CC[C@H](NC(=O)c3ccnc4ccccc34)CC1)C2.O [SB-277011-A, SB-277011-A hydrochloride hydrate] | – | – | – | – | – | Time to recovery of normal motility ([1]; L4 larvae, 30 μM): ≤ 20 min; Drop in number of normal worms with thrashing-like movement ([1]; L4 larvae, 30 μM, 5 min, p < 0.01): 60%; Number of worms with motility that appeared normal ([1]; L4 larvae, 30 μM, 10 min, p < 0.05): 50%; Number of worms with motility that appeared normal ([1]; L4 larvae, 30 μM, 15 min, p > 0.05): 85%; Number of worms with motility that appeared normal ([1]; L4 larvae, 30 μM, after 20 min): returned to near negative control values; Effect on motility of adult C. elegans compared with larvae ([1]; adult worms): less effective on adult C. elegans
3 | CC(C)(C)[C@]1(O)CCN2C[C@H]3c4ccccc4CCc4cccc(c43)[C@@H]2C1 [(+)-butaclamol Cl, (+)-butaclamol hydrochloride] | 1.34 ± 0.29 | 79.53 ± 12.41 | 12.75 ± 3.63 | – | – | IC50 [2]: 9.85 ± 2.37 µM; Hill slope (nH) of ach curve ([3]; in presence of 1 μM hit): 9.64 ± 4.14
4 | O=C(OCC1c2ccccc2-c2ccccc21)N1CCC(C(=O)O)(c2cccc3ccccc23)CC1 [fmoc-1, fmoc-4-(naphthalen-1-yl)-piperidine-4-carboxylic acid] | 1.97 ± 0.37 | 82.49 ± 4.74 | 1.76 ± 0.21 | No visual effects | 10 ± 1.38 | –
5 | O=C(OCC1c2ccccc2-c2ccccc21)N1CCC(C(=O)O)(c2ccc3ccccc3c2)CC1 [fmoc-2, fmoc-4-(naphthalen-2-yl)-piperidine-4-carboxylic acid] | 1.22 ± 0.17 | 80.34 ± 10.32 | 2.54 ± 0.18 | No visual effects | 16.7 ± 1.95 | –
6 | CC(=O)OCC[N+](C)(C)C [ach, acetylcholine chloride] | – | – | – | – | – | Hill slope (nH) ([3]; ach alone (control, absence of hits)): 3.05 ± 0.07; Emax ([3]; read-out: Imax (maximum response)): 97.5 ± 1.19%
